Results taken from paper PMC6920997, “Total Phenolic and Flavonoid Content and Biological Activities of Extracts and Isolated Compounds of Cytisus villosus Pourr” (Biomolecules, 2019).
≈ marks a conversion by molar mass, not a printed value. Read-outs that look alike come from different tables or passages of the source.

Tests used:
Assay type in all cases: cell-based
[1] = system: methicillin-resistant S. aureus (MRSA); assay: Antibacterial assay MRSA; settings: Staphylococcus aureus, pure compounds
Method: (§1) Extracts and pure compounds were tested for their antimicrobial activity against Staphylococcus aureus, methicillin-resistant S. aureus (MRSA), Escherichia coli, Pseudomonas aeruginosa, and Mycobacterium intracellulare. The antifungal activities were evaluated against a panel of pathogenic fungi, including Candida albicans, C. glabrata, C. krusei, Aspergillus fumigatus, and Cryptococcus neoformans, associated with opportunistic infections.

THP1 cells = assay: THP1 cytotoxicity
Source text: (§2) The in vitro antileishmanial and antitrypanosomal assays were done on cell cultures of L. donovani promastigotes, axenic amastigotes, THP1-amastigotes, and Trypanosoma brucei trypomastigotes by Alamar Blue assays. The conditions for seeding the THP1 cells, exposure to the test samples, and evaluation of cytotoxicity were the same as described in parasite-rescue and transformation assay. IC50 and IC90 values were computed from the dose response curves using XLfit software (XLfit 5.3.1, IDBS analytical, Boston MA, USA). DFMO (difluoromethylornithine) was used as the positive control. The antiprotozoal activity of C. villosus extracts and isolated compounds were evaluated in vitro against L. donovani promastigotes, axenic amastigotes, and intracellular amastigotes in THP1 cells. The extracts and some isolated compounds were also evaluated against T. brucei trypomastigote forms. All the extracts and compounds were simultaneously tested against THP1 cell for determination of general cytotoxicity. The extracts and isolated compounds were also evaluated for their antimalarial activity against chloroquine-sensitive (D6, Sierra Leone) and chloroquine-resistant strains (W2, Indochina) strains of Plasmodium falciparum. Furthermore, they were tested for cytotoxicity against the Vero cell line.

THP1 cytotoxicity = settings: human
Source text: as §2

HepG2 cells = assay: Cellular antioxidant activity (CAA) assay
Method: The cellular antioxidant activity was measured in HepG2 cells as described by Wolfe and Rui. The antioxidant activity was expressed in terms of CAA units. The area under the curve (AUC) of fluorescence versus time plot was used to calculate CAA units as described by Wolfe and Rui.

Staphylococcus aureus = assay: Antibacterial assay S. aureus; settings: pure compounds
Method: as §1

[2] = system: L. donovani promastigotes; assay: Antileishmanial Alamar Blue assay, promastigotes; settings: Leishmania donovani; for IC50: read-out: L. donovani Promastigote IC50; for IC90: read-out: L. donovani Promastigote IC90
Source text: as §2

[3] = system: L. donovani axenic amastigotes; assay: Antileishmanial Alamar Blue assay, axenic amastigotes; settings: Leishmania donovani; for IC50: read-out: L. donovani Amastigote IC50; for IC90: read-out: L. donovani Amastigote IC90
Source text: as §2

Escherichia coli = assay: Antibacterial assay E. coli; settings: pure compounds
Method: as §1

Candida albicans = assay: Antifungal assay C. albicans; settings: pure compounds
Method: as §1

Pseudomonas aeruginosa = assay: Antibacterial assay P. aeruginosa; settings: pure compounds
Method: as §1

[4] = system: L. donovani intracellular amastigotes in THP1 cells; assay: Antileishmanial assay, intracellular amastigotes in THP1 cells; settings: Leishmania donovani; for IC50: THP-1, read-out: L. donovani Amastigote/THP1 IC50; for IC90: THP-1, read-out: L. donovani Amastigote/THP1 IC90
Source text: as §2

Aspergillus fumigatus = assay: Antifungal assay A. fumigatus; settings: pure compounds
Method: as §1

Cryptococcus neoformans = assay: Antifungal assay C. neoformans; settings: pure compounds
Method: as §1

[5] = system: Trypanosoma brucei trypomastigotes; assay: Antitrypanosomal Alamar Blue assay; settings: for IC50 / IC90: Table 4; for IC50: read-out: T. brucei IC50; for IC90: read-out: T. brucei IC90
Source text: as §2

iNOS = assay: Inhibition of iNOS (intracellular NO production) in RAW 264.7 macrophages; settings: Mus musculus, RAW264.7; RAW 264.7 cells; NA = no activity at 25 µg/mL (pure compounds) or 100 µg/mL (extracts)
Method: The extracts and isolated compounds of C. villosus were evaluated in terms of their interaction with cellular targets related to inflammation and metabolic disorders, such as iNOS and NF-κB. The inhibition of intracellular NO production as a result of iNOS activity was assayed in mouse macrophages (RAW 264.7cells). Cytotoxicity of test samples to macrophages was also determined in parallel to check if the inhibition of iNOS was due to cytotoxic effects.

NF-κB = assay: Reporter gene assay for the inhibition of NF-κB; settings: PMA-treated cells, luciferase reporter; NA = no activity at 25 µg/mL (pure compounds) or 100 µg/mL (extracts); read-out: Inhibition of NF-kB IC50
Method: Reporter gene assay for the inhibition of NF-κB Activity was performed as described earlier. In brief, cells transfected with NF-κB luciferase plasmid construct were plated in 96-well plates at a density of 1.25 × 10^5 cells/well. After 24 h, cells were treated with the test compounds and, after incubating for 30 min, phorbol 12-myristate 13-acetate (PMA) (Sigma-Aldrich, Burlington MA, USA) (70 ng/mL) was added and further incubated for 6−8 h. Luciferase activity was measured as described above. Percent decrease in luciferase activity was calculated relative to the vehicle control. Parthenolide (Sigma-Aldrich, Burlington MA, USA) was used as a positive control.

[6] = Cytotoxicity assay (neutral red) SK-OV-3; settings: human, SK-OV-3 cells, NA = No activity at 100 μM
Method: (§3) Each assay was performed in 96-well tissue culture-treated microplates. […] All cell lines were obtained from the American Type Culture Collection (ATCC, Rockville, MD, USA). Each assay was performed in 96-well tissue culture-treated microplates. Cells were seeded at a density of 25,000 cells/well and incubated for 24 h. Samples at different concentrations were added and cells were again incubated for 48 h. At the end of incubation, the cell viability was determined using neutral red dye according to a modification of the procedure of Borenfreund et al.. IC50 values were determined from dose−response curves of percent growth inhibition against test concentrations. Doxorubicin was used as a positive control, while DMSO was used as the negative (vehicle) control.

[7] = Cytotoxicity assay (neutral red) BT-549; settings: human, BT-549 cells, NA = No activity at 100 μM
Method: as §3

[8] = Cytotoxicity assay (neutral red) LLC-PK1; settings: pig, LLC-PK1 cells (noncancerous kidney cells), NC = Not cytotoxic
Method: as §3

[9] = Cytotoxicity assay (neutral red) KB; settings: human, KB cells, NA = No activity at 100 μM
Method: as §3

[10] = Cytotoxicity assay (neutral red) SK-MEL; settings: human, SK-MEL cells, NA = No activity at 100 μM
Method: as §3

## C[C@@H]1O[C@@H](O[C@@H]2[C@@H](O)[C@H](O)[C@@H](CO)O[C@H]2c2c(O)cc(O)c3c(=O)cc(-c4ccc(O)c(O)c4)oc23)[C@H](O)[C@H](O)[C@H]1O [Compound 4, 2″-O-α-L-rhamnosylorientin]
[1]
  IC50: > 20 µg/mL
THP1 cells
  THP1 Cytotoxicity C90: >10 µM
THP1 cytotoxicity; THP1 cells, read-out: THP1 Cytotoxicity IC50
  IC50: > 10 µM
HepG2 cells; concentration 250 µg/mL
  % Decrease in Oxidative Stress: 28%
HepG2 cells; concentration 500 µg/mL
  % Decrease in Oxidative Stress: 29%
HepG2 cells; concentration 1000 µg/mL
  % Decrease in Oxidative Stress: 36%
Staphylococcus aureus
  IC50: > 20 µg/mL
[2]
  IC50: > 10 µM
  IC90: > 10 µM
[3]
  IC50: > 10 µM
  IC90: > 10 µM
Escherichia coli
  IC50: > 20 µg/mL
Candida albicans
  IC50: > 20 µg/mL
Pseudomonas aeruginosa
  IC50: > 20 µg/mL
[4]
  IC50: > 10 µM
  IC90: > 10 µM
Aspergillus fumigatus
  IC50: > 20 µg/mL
Cryptococcus neoformans
  IC50: > 20 µg/mL
[5]; Trypanosoma brucei
  IC50: > 10 µM
  IC90: > 10 µM
[5]; as given in the text
  T. brucei IC50: didn’t show an effect

## NCCCC(N)(C(=O)O)C(F)F (centres unmarked) [DFMO, difluoromethylornithine, reference compound]
[5]
  IC50: 3.63 µM
  IC90: 8.8 µM

## C=C1C(=O)O[C@H]2[C@H]1CC/C(C)=C/CC[C@@]1(C)O[C@@H]21 [Parthenolide, reference compound]
iNOS
  IC50: 0.2 µg/mL (≈ 0.805 µM)
NF-κB
  IC50: 1.63 µg/mL (≈ 6.56 µM)

## N=C(N)c1ccc(OCCCCCOc2ccc(C(=N)N)cc2)cc1 [Pentamidine, reference compound]
THP1 cells; human
  THP1 Cytotoxicity C90: >10 µM
THP1 cytotoxicity
  IC50: > 10 µM
[2]
  IC50: 1.48 µM
  IC90: 2.38 µM
[3]
  IC50: 9.58 µM
  IC90: > 10 µM
[4]
  IC50: 1.16 µM
  IC90: 5.59 µM
[5]; Trypanosoma brucei
  IC50: 0.001 µM
  IC90: 0.002 µM

## O=c1c(O)c(-c2ccc(O)c(O)c2)oc2cc(O)cc(O)c12 [Quercetin, reference compound]
HepG2 cells; 25 µM
  % Decrease in Oxidative Stress: 77%

## COc1cccc2c1C(=O)c1c(O)c3c(c(O)c1C2=O)C[C@@](O)(C(=O)CO)C[C@@H]3O[C@H]1C[C@H](N)[C@H](O)[C@H](C)O1 [doxorubicin, Doxorubicin]
[6]
  IC50 at 48 h: 2 µg/mL (≈ 3.68 µM)
[7]
  IC50 at 48 h: 0.9 µg/mL (≈ 1.66 µM)
[8]
  IC50 at 48 h: 1.2 µg/mL (≈ 2.21 µM)
[9]
  IC50 at 48 h: 1.3 µg/mL (≈ 2.39 µM)
[10]
  IC50 at 48 h: 0.8 µg/mL (≈ 1.47 µM)
